Laboratory results: patent US20150105252A1, “SUBSTITUTED PYRAZOLES AS HERBICIDES” (E I DU PONT DE NEMOURS AND COMPANY, priority 2013, published 2015)

How the values were obtained:
[1] = system: crabgrass, large; experiment: Test A postemergence; assay type: in vivo, Digitaria sanguinalis
Summary of the method: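 Both timings tested concurrently in loam/sand soil: preemergence by directed soil spray, postemergence on plants of 2–10 cm at the one- to two-leaf stage. Greenhouse holding period was approximately 10 days before visual injury assessment (0–100, 0 = no effect).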

[2] = system: wheat; experiment: Test C preemergence; assay type: in vivo, Triticum aestivum; conditions: preemergence; for Plant response rating, Wheat: 125 g ai/ha, scale 0 to 100, 0 = no effect, 100 = complete control
Summary of the method: (§1)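 Scores of 0 (no effect) to 100 (complete control) were assigned by eye after 13–15 days, comparing treated pots with controls. Soil-applied (preemergence) treatments went onto seeds in loam and sand; foliar (postemergence) treatments onto 1- to 4-leaf plants in peat medium.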

[3] = system: galium; experiment: Test C preemergence; assay type: in vivo, Galium aparine; conditions: preemergence; for Plant response rating, Galium: 125 g ai/ha, scale 0 to 100, 0 = no effect, 100 = complete control
Summary of the method: as §1

[4] = system: johnsongrass; experiment: Test C preemergence; assay type: in vivo, Sorghum halepense; conditions: preemergence; for Plant response rating, Johnsongrass: 125 g ai/ha, scale 0 to 100, 0 = no effect, 100 = complete control
Summary of the method: as §1

[5] = system: lambsquarters; experiment: Test C preemergence; assay type: in vivo, Chenopodium album; conditions: preemergence; for Plant response rating, Lambsquarters: 125 g ai/ha, scale 0 to 100, 0 = no effect, 100 = complete control
Summary of the method: as §1

[6] = system: soybean; experiment: Test C preemergence; assay type: in vivo, Glycine max; conditions: preemergence; for Plant response rating, Soybean: 125 g ai/ha, scale 0 to 100, 0 = no effect, 100 = complete control
Summary of the method: as §1

[7] = system: barnyardgrass; experiment: Test C preemergence; assay type: in vivo, Echinochloa crus-galli; conditions: preemergence; for Plant response rating, Barnyardgrass: 125 g ai/ha, scale 0 to 100, 0 = no effect, 100 = complete control
Summary of the method: as §1

[8] = system: oilseed rape; experiment: Test C preemergence; assay type: in vivo, Brassica napus; conditions: preemergence; for Plant response rating, Oilseed Rape: 125 g ai/ha, scale 0 to 100, 0 = no effect, 100 = complete control
Summary of the method: as §1

[9] = system: velvetleaf; experiment: Test C preemergence; assay type: in vivo, Abutilon theophrasti; conditions: preemergence; for Plant response rating, Velvetleaf: 125 g ai/ha, scale 0 to 100, 0 = no effect, 100 = complete control
Summary of the method: as §1

[10] = system: blackgrass; experiment: Test C postemergence; assay type: in vivo, Alopecurus myosuroides; conditions: for Plant response rating (scale of 0 to 100 where 0 is no effect and 100 is complete control), Blackgrass: Postemergence, 31 g ai/ha, visually evaluated after 13 to 15 days; for Blackgrass plant response rating / Plant response rating, Blackgrass: postemergence; for Blackgrass plant response rating: 62 g ai/ha, scale 0 to 100
Summary of the method: as §1

[11] = system: crabgrass, large; experiment: Test C postemergence; assay type: in vivo, Digitaria sanguinalis; conditions: for Plant response rating (scale of 0 to 100 where 0 is no effect and 100 is complete control), Crabgrass, Large: Postemergence, 31 g ai/ha, visually evaluated after 13 to 15 days; for Crabgrass, Large plant response rating / Plant response rating, Crabgrass, Large: postemergence; for Crabgrass, Large plant response rating: 62 g ai/ha, scale 0 to 100
Summary of the method: as §1

[12] = system: johnsongrass; experiment: Test C postemergence; assay type: in vivo, Sorghum halepense; conditions: for Plant response rating (scale of 0 to 100 where 0 is no effect and 100 is complete control), Johnsongrass: Postemergence, 31 g ai/ha, visually evaluated after 13 to 15 days; for Johnsongrass plant response rating / Plant response rating, Johnsongrass: postemergence; for Johnsongrass plant response rating: 62 g ai/ha, scale 0 to 100
Summary of the method: as §1

[13] = system: morningglory; experiment: Test C postemergence; assay type: in vivo, Ipomoea coccinea; conditions: for Plant response rating (scale of 0 to 100 where 0 is no effect and 100 is complete control), Morningglory: Postemergence, 31 g ai/ha, visually evaluated after 13 to 15 days; for Morningglory plant response rating / Plant response rating, Morningglory: postemergence; for Morningglory plant response rating: 62 g ai/ha, scale 0 to 100
Summary of the method: as §1

[14] = system: velvetleaf; experiment: Test C postemergence; assay type: in vivo, Abutilon theophrasti; conditions: for Plant response rating, Velvetleaf / Velvetleaf plant response rating: postemergence; for Plant response rating, Velvetleaf: 250 g ai/ha, scale 0 to 100 (0 no effect, 100 complete control); for Velvetleaf plant response rating: scale 0 to 100
Summary of the method: as §1

[15] = system: chickweed; experiment: Test C postemergence; assay type: in vivo, Stellaria media; conditions: for Plant response rating (scale of 0 to 100 where 0 is no effect and 100 is complete control), Chickweed: Postemergence, 31 g ai/ha, visually evaluated after 13 to 15 days; for Chickweed plant response rating / Plant response rating, Chickweed: postemergence; for Chickweed plant response rating: 62 g ai/ha, scale 0 to 100
Summary of the method: as §1

[16] = Postemergence, 500 g ai/ha, 0 to 100 scale (0 no effect, 100 complete control)
[17] = postemergence, 125 g ai/ha, about 10 days, visual rating on 0 to 100 scale (0 no effect, 100 complete control)
[18] = 31 g ai/ha, visual rating, scale 0 to 100 (0 no effect, 100 complete control), 13 to 15 days
[19] = 62 g ai/ha, scale 0 to 100 (0 no effect, 100 complete control), 13 to 15 days
[20] = 250 g ai/ha, scale 0 to 100, 0 is no effect, 100 is complete control
[21] = 250 g ai/ha, scale 0 to 100 (0 no effect, 100 complete control)
[22] = 125 g ai/ha, scale 0 to 100, 0 no effect, 100 complete control

SMILES: CCc1cc(C(=O)NC(C)C)nn1Cc1ccnc(C(F)(F)F)c1 [Compound 139]
- Crabgrass, Large plant response rating [1, 16]: 90
- Crabgrass, Large plant response rating [1, 17]: 90
- Wheat plant response rating [2, 18]: 30
- Wheat plant response rating [2, 19]: 85
- Plant response rating, Wheat ([2]; 13 to 15 days): 85
- Wheat plant response rating [2, 20]: 90
- Galium plant response rating [3, 18]: 30
- Galium plant response rating [3, 19]: 80
- Plant response rating, Galium ([3]; 13 to 15 days): 100
- Galium plant response rating [3, 20]: 100
- Johnsongrass plant response rating [4, 18]: 10
- Johnsongrass plant response rating [4, 19]: 70
- Plant response rating, Johnsongrass ([4]; 13 to 15 days): 85
- Johnsongrass plant response rating [4, 20]: 98
- Lambsquarters plant response rating [5, 18]: 35
- Lambsquarters plant response rating [5, 19]: 85
- Plant response rating, Lambsquarters ([5]; 13 to 15 days): 100
- Lambsquarters plant response rating [5, 20]: 100
- Soybean plant response rating [6, 18]: 5
- Soybean plant response rating [6, 19]: 5
- Plant response rating, Soybean ([6]; 13 to 15 days): 30
- Soybean plant response rating [6, 20]: 60
- Barnyardgrass plant response rating ([7]; 31 g ai/ha, scale 0 to 100 (0 no effect, 100 complete control), 13 to 15 days): 40
- Barnyardgrass plant response rating [7, 19]: 98
- Plant response rating, Barnyardgrass ([7]; 13 to 15 days): 100
- Barnyardgrass plant response rating [7, 20]: 100
- Oilseed Rape plant response rating [8, 18]: 50
- Oilseed Rape plant response rating [8, 19]: 100
- Plant response rating, Oilseed Rape ([8]; 13 to 15 days): 100
- Oilseed Rape plant response rating [8, 20]: 100
- Velvetleaf plant response rating [9, 18]: 0
- Velvetleaf plant response rating [9, 19]: 10
- Plant response rating, Velvetleaf ([9]; 13 to 15 days): 95
- Velvetleaf plant response rating [9, 20]: 100
- Plant response rating (scale of 0 to 100 where 0 is no effect and 100 is complete control), Blackgrass [10]: 20
- Blackgrass plant response rating [10]: 20
- Plant response rating, Blackgrass [10, 21]: 35
- Plant response rating, Blackgrass [10, 22]: 20
- Plant response rating (scale of 0 to 100 where 0 is no effect and 100 is complete control), Crabgrass, Large [11]: 10
- Crabgrass, Large plant response rating [11]: 10
- Plant response rating, Crabgrass, Large [11, 21]: 20
- Plant response rating, Crabgrass, Large [11, 22]: 15
- Plant response rating (scale of 0 to 100 where 0 is no effect and 100 is complete control), Johnsongrass [12]: 5
- Johnsongrass plant response rating [12]: 5
- Plant response rating, Johnsongrass [12, 21]: 20
- Plant response rating, Johnsongrass [12, 22]: 10
- Plant response rating (scale of 0 to 100 where 0 is no effect and 100 is complete control), Morningglory [13]: 60
- Morningglory plant response rating [13]: 60
- Plant response rating, Morningglory [13, 21]: 80
- Plant response rating, Morningglory [13, 22]: 90
- Plant response rating (scale of 0 to 100 where 0 is no effect and 100 is complete control), Velvetleaf ([14]; Postemergence, 31 g ai/ha, visually evaluated after 13 to 15 days): 10
- Plant response rating, Velvetleaf [14]: 25
- Velvetleaf plant response rating [14]: 15
- Plant response rating (scale of 0 to 100 where 0 is no effect and 100 is complete control), Chickweed [15]: 60
- Chickweed plant response rating [15]: 60
- Plant response rating, Chickweed [15, 21]: 80
- Plant response rating, Chickweed [15, 22]: 65

SMILES: CCCc1cc(C(=O)NOCC)nn1Cc1ccnc(C(F)(F)F)c1 [Compound 185]
- Crabgrass, Large plant response rating [1, 16]: 90
- Crabgrass, Large plant response rating [1, 17]: 80
- Wheat plant response rating [2, 18]: 0
- Wheat plant response rating [2, 19]: 60
- Plant response rating, Wheat ([2]; 13 to 15 days): 85
- Wheat plant response rating [2, 20]: 90
- Galium plant response rating [3, 18]: 80
- Galium plant response rating [3, 19]: 100
- Plant response rating, Galium ([3]; 13 to 15 days): 95
- Galium plant response rating [3, 20]: 100
- Johnsongrass plant response rating [4, 18]: 5
- Johnsongrass plant response rating [4, 19]: 10
- Plant response rating, Johnsongrass ([4]; 13 to 15 days): 20
- Johnsongrass plant response rating [4, 20]: 60
- Lambsquarters plant response rating [5, 18]: 98
- Lambsquarters plant response rating [5, 19]: 98
- Plant response rating, Lambsquarters ([5]; 13 to 15 days): 100
- Lambsquarters plant response rating [5, 20]: 100
- Soybean plant response rating [6, 18]: 5
- Soybean plant response rating [6, 19]: 5
- Plant response rating, Soybean ([6]; 13 to 15 days): 25
- Soybean plant response rating [6, 20]: 65
- Barnyardgrass plant response rating [7, 18]: 55
- Barnyardgrass plant response rating [7, 19]: 75
- Plant response rating, Barnyardgrass ([7]; 13 to 15 days): 98
- Barnyardgrass plant response rating [7, 20]: 100
- Oilseed Rape plant response rating [8, 18]: 70
- Oilseed Rape plant response rating [8, 19]: 80
- Plant response rating, Oilseed Rape ([8]; 13 to 15 days): 85
- Oilseed Rape plant response rating [8, 20]: 100
- Velvetleaf plant response rating [9, 18]: 20
- Velvetleaf plant response rating [9, 19]: 65
- Plant response rating, Velvetleaf ([9]; 13 to 15 days): 100
- Velvetleaf plant response rating [9, 20]: 98
- Plant response rating (scale of 0 to 100 where 0 is no effect and 100 is complete control), Blackgrass [10]: 0
- Blackgrass plant response rating [10]: 0
- Plant response rating, Blackgrass [10, 21]: 5
- Plant response rating, Blackgrass [10, 22]: 5
- Plant response rating (scale of 0 to 100 where 0 is no effect and 100 is complete control), Crabgrass, Large [11]: 5
- Crabgrass, Large plant response rating [11]: 5
- Plant response rating, Crabgrass, Large [11, 21]: 45
- Plant response rating, Crabgrass, Large [11, 22]: 5
- Plant response rating (scale of 0 to 100 where 0 is no effect and 100 is complete control), Johnsongrass [12]: 0
- Johnsongrass plant response rating [12]: 0
- Plant response rating, Johnsongrass [12, 21]: 5
- Plant response rating, Johnsongrass [12, 22]: 0
- Plant response rating (scale of 0 to 100 where 0 is no effect and 100 is complete control), Morningglory [13]: 40
- Morningglory plant response rating [13]: 45
- Plant response rating, Morningglory [13, 21]: 75
- Plant response rating, Morningglory [13, 22]: 85
- Plant response rating, Velvetleaf [14]: 35
- Velvetleaf plant response rating [14]: 25
- Plant response rating (scale of 0 to 100 where 0 is no effect and 100 is complete control), Chickweed [15]: 70
- Chickweed plant response rating [15]: 80
- Plant response rating, Chickweed [15, 21]: 85
- Plant response rating, Chickweed [15, 22]: 85
